What was measured:
Format in all cases: cell-based, human
[1] = tested on: HEK293 T cells; assay: TIDE analysis of DSB repair at CFTR gene locus
Description: The effect of Nu7441 treatment on HDR was also evaluated at the CFTR gene locus in HEK293 T cells. To do so cells were electroporated with RNP comprising Cas9 and a gRNA targeting the CFTR gene locus (SEQ ID NO: 18; sgRNA target sequence identified by SEQ ID NO: 19). 2×10^5 cells were edited with 1 μM Cas9 and 1.5 μM gRNA. The cells were transfected with a ssODN donor (SEQ ID NO: 42). Cells were edited with 100 μM ssODN. The ssODN contains homology arms spanning both sides of the DSB induced by the Cas9-guide and is designed to include 3 additional base pairs (GCA) into the CFTR gene to aid detection of HDR. Cells were also treated with 5 μM Nu7441. Gene correction was assessed by TIDE analysis. TIDE analysis uses a pair of PCR reactions and standard capillary sequencing runs to identify mutations induced at the site of a DSB (see e.g., Brinkman (2014) Nucleic Acids Res 42:e168). The type of mutation induced at the DSB was indicative of the pathway used to repair the DSB. Formation of an indel comprising either an insertion or a deletion of bases was considered due to NHEJ repair; a deletion of 2-3 base pairs was considered due to MMEJ repair; while an insertion of 3 base pairs was considered due to HDR repair. Shown in FIGS. 4A-4B are mutations introduced at the DSB for cells treated with Nu7441 (FIG. 4B) compared to a DMSO negative control (FIG. 4A). […] This reduction in NHEJ repair in the presence of Nu7441 was evaluated with an additional ssODN donor (SEQ ID NO: 41).

[2] = tested on: wild-type CD34-expressing LT-HSPCs; assay: HDR and INDEL frequency at HBB locus with AAV.323 donor by NGS
Description: The AAV-encoded homology donor used for correction is referred to as “AAV.323” and is identified by sequence in Table 8.

[3] = tested on: patient-derived PBMCs; assay: Hemoglobin expression by HPLC in edited patient-derived PBMCs; conditions: FIG. 36
Description: Briefly, on day 18 post-editing, 1×10^6 cells were harvested, centrifuged, and washed with PBS. The cells were prepared for HPLC analysis. Hemoglobin variants were quantified in cell samples using reverse-phase HPLC chromatography and gradient elution. […] Thus, high levels of HDR achieved with i53 contribute to normalization of hemoglobin expression products.
Hemoglobin expression was measured by HPLC analysis for edited PBMCs as described above.

[4] = either ssODN donor (SEQ ID NO: 41 or 42), FIG. 5
[5] = compared to mock EP control cells

Molecule	HDR repair (+3 base pair insertion) at the DSB ([1]; 5 μM Nu7441, ssODN SEQ ID NO: 42, FIG. 4)	indel formation (NHEJ repair) ([1]; 5 μM Nu7441, ssODN SEQ ID NO: 42, vs DMSO negative control, FIG. 4)	HDR repair [1, 4]	indel formation due to NHEJ repair [1, 4]	fold increase in HDR efficiency for incorporation of the AAV.323 gene-edit ([2]; 1 μg i53 mRNA, day 2 post-editing, compared to R02+AAV.323 only, FIG. 30A)	frequency of INDELs at the R02 cut site ([2]; i53 vs R02+AAV.323 only, combination vs i53 only, FIG. 30B)	expression of HbA [3, 5]	expression of HbS [3, 5]	ratio of HbS to HbA, PBMCs vs CD34-expressing LT-HSPCs ([3]; edited in the presence of i53)
O=c1cc(N2CCOCC2)oc2c(-c3cccc4c3sc3ccccc34)cccc12 [Nu7441]	much higher levels	dramatically reduced	increase	decreased levels					
i53: polypeptide inhibitor of 53BP1 (SEQ ID NO: 70), introduced as an mRNA-encoded protein (ORF SEQ ID NO: 69)					approximately 1.5 fold	decreased	increased	significant reduction	comparable

— US20210008161A1, “METHODS AND COMPOSITIONS FOR IMPROVED HOMOLOGY DIRECTED REPAIR” (CRISPR THERAPEUTICS AG, priority 2019, published 2021)
